Experimental data taken from US4473578A, “β-Lactam antibiotics and their use” (Beecham Group Limited, priority 1979, dated 1984).
Values after ≈ are worked out from the molar mass of the structure shown. Counter-ions that a name gives are not always drawn. Like-named read-outs stand apart in the source and are kept apart here.

Columns and labels:
Assay in all cases: MIC in agar
Assay type in all cases: cell-based
Bacillus subtilis A = settings: for MIC: Bacillus subtilis
Excerpt: (§1) a. Antibacterial effectiveness of compounds of
(§2) Examples 6 and 7 in agar.
(§3) (μg/ml) in agar of compound

Citrobacter freundii E8 = tested on: Citrobacter freundii E8
Excerpt: as §1, §2, §3

Enterobacter cloacae N1 = tested on: Enterobacter cloacae N1
Excerpt: as §1, §2, §3

Escherichia coli 0111 = tested on: Escherichia coli 0111
Excerpt: as §1, §2, §3

Escherichia coli JT39 = tested on: Escherichia coli JT39
Excerpt: as §1, §2, §3

Klebsiella aerogenes A = tested on: Klebsiella aerogenes A
Excerpt: as §1, §2, §3

Proteus mirabilis C977 = tested on: Proteus mirabilis C977
Excerpt: as §1, §2, §3

Proteus morganii 1580 = settings: for MIC: Morganella morganii
Excerpt: as §1, §2, §3

Proteus rettgeri WM16 = settings: for MIC: Providencia rettgeri
Excerpt: as §1, §2, §3

Proteus vulgaris W091 = tested on: Proteus vulgaris W091
Excerpt: as §1, §2, §3

Pseudomonas aeruginosa A = tested on: Pseudomonas aeruginosa A
Excerpt: as §1, §2, §3

[1] = tested on: Salmonella typhimurium CT10; settings: for MIC: Salmonella enterica
Excerpt: as §1, §2, §3

Serratia marcescens US20 = tested on: Serratia marcescens US20
Excerpt: as §1, §2, §3

Shigella sonnei MB 11967 = settings: for MIC: MB11967
Excerpt: as §1, §2, §3

[2] = tested on: Staphylococcus aureus Oxford
Excerpt: as §1, §2, §3

[3] = tested on: Staphylococcus aureus Russell
Excerpt: as §1, §2, §3

Streptococcus faecalis I = settings: for MIC: Enterococcus faecalis
Excerpt: as §1, §2, §3

[4] = tested on: Streptococcus pyogenes CN10
Excerpt: as §1, §2, §3

[5] = tested on: Staphylococcus aureus 1517
Excerpt: as §1, §2, §3

E. coli ESS = settings: Escherichia coli
Excerpt: | (μg/ml) in agar of compound

[6] = in agar, Citrobacter freundii E8, read-out: M.I.C.
[7] = in agar, Enterobacter cloacae N1, read-out: M.I.C.
[8] = in agar, Escherichia coli JT39, read-out: M.I.C.
[9] = in agar, Klebsiella aerogenes A, read-out: M.I.C.
[10] = in agar, Proteus mirabilis C977, read-out: M.I.C.
[11] = in agar, Proteus morganii 1580, read-out: M.I.C.
[12] = in agar, Proteus rettgeri WM16, read-out: M.I.C.
[13] = in agar, Proteus vulgaris W091, read-out: M.I.C.
[14] = in agar, Pseudomonas aeruginosa A, read-out: M.I.C.
[15] = in agar, Salmonella typhimurium CT10, read-out: M.I.C.
[16] = in agar, Serratia marcescens US20, read-out: M.I.C.
[17] = in agar, Staphylococcus aureus 1517, read-out: M.I.C.
[18] = in agar, Staphylococcus aureus Oxford, read-out: M.I.C.
[19] = in agar, Staphylococcus aureus Russell, read-out: M.I.C.
[20] = in agar, Streptococcus faecalis I, read-out: M.I.C.

Row | SMILES | MIC (Bacillus subtilis A) [µg/mL] | MIC (Escherichia coli 0111) [µg/mL] | MIC (Shigella sonnei MB 11967) [µg/mL] | MIC (Citrobacter freundii E8; [6]) [µg/mL] | MIC (Enterobacter cloacae N1; [7]) [µg/mL] | MIC (Escherichia coli JT39; [8]) [µg/mL] | MIC (Klebsiella aerogenes A; [9]) [µg/mL] | MIC (Proteus mirabilis C977; [10]) [µg/mL] | MIC (Proteus morganii 1580; [11]) [µg/mL] | MIC (Proteus rettgeri WM16; [12]) [µg/mL] | MIC (Proteus vulgaris W091; [13]) [µg/mL] | MIC (Pseudomonas aeruginosa A; [14]) [µg/mL] | MIC [1, 15] [µg/mL] | MIC (Serratia marcescens US20; [16]) [µg/mL] | MIC [5, 17] [µg/mL] | MIC [2, 18] [µg/mL] | MIC [3, 19] [µg/mL] | MIC (Streptococcus faecalis I; [20]) [µg/mL] | MIC (E. coli ESS) [µg/mL] | other results
1 | CCSC1=C(C(=O)[O-])N2C(=O)[C@H]([C@H](C)O)[C@H]2C1.[Na+] [Example 7] |  |  |  |  |  |  |  |  |  |  |  |  |  |  |  |  |  |  |  | M.I.C. (Bacillus subtilis A; in agar, Bacillus subtilis A): 5.0 µg/mL; M.I.C. (Citrobacter freundii E8; in agar, Citrobacter freundii E8): 2.5 µg/mL; M.I.C. (Enterobacter cloacae N1; in agar, Enterobacter cloacae N1): 5.0 µg/mL; M.I.C. (Escherichia coli 0111): 5.0 µg/mL; M.I.C. (Escherichia coli JT39; in agar, Escherichia coli JT39): 2.5 µg/mL; M.I.C. (Klebsiella aerogenes A; in agar, Klebsiella aerogenes A): 2.5 µg/mL; M.I.C. (Proteus mirabilis C977; in agar, Proteus mirabilis C977): 12.5 µg/mL; M.I.C. (Proteus morganii 1580; in agar, Proteus morganii 1580): 2.5 µg/mL; M.I.C. (Proteus rettgeri WM16; in agar, Proteus rettgeri WM16): 5.0 µg/mL; M.I.C. (Proteus vulgaris W091; in agar, Proteus vulgaris W091): 5.0 µg/mL; M.I.C. (Pseudomonas aeruginosa A; in agar, Pseudomonas aeruginosa A): > 50 µg/mL; M.I.C. ([1]; in agar, Salmonella typhimurium CT10): 2.5 µg/mL; M.I.C. (Serratia marcescens US20; in agar, Serratia marcescens US20): 5.0 µg/mL; M.I.C. (Shigella sonnei MB 11967): 5.0 µg/mL; M.I.C. ([2]; in agar, Staphylococcus aureus Oxford): 1.2 µg/mL; M.I.C. ([3]; in agar, Staphylococcus aureus Russell): 1.2 µg/mL; M.I.C. (Streptococcus faecalis I; in agar, Streptococcus faecalis I): > 50 µg/mL; M.I.C. ([4]; in agar, Streptococcus pyogenes CN10): 1.2 µg/mL
2 | CSC1=C(C(=O)[O-])N2C(=O)[C@H]([C@H](C)O)[C@H]2C1.[Na+] [Example 6, Sodium (5R, 6S)-3-methylthio-6-[(S)-1-hydroxyethyl]-7-oxo-1-azabicyclo[3.2.0]hept-2-ene-2-carboxylate] | 25 | 12.5 | 12.5 |  |  |  |  |  |  |  |  |  |  |  |  |  |  |  |  | MIC (Citrobacter freundii E8; Citrobacter freundii, E8): 12.5 µg/mL; MIC (Enterobacter cloacae N1; Enterobacter cloacae, N1): 28 µg/mL; MIC (Escherichia coli JT39; Escherichia coli, JT39): 12.5 µg/mL; MIC (Klebsiella aerogenes A; Klebsiella aerogenes): 12.5 µg/mL; MIC (Proteus mirabilis C977; Proteus mirabilis, C977): 50 µg/mL; MIC (Proteus morganii 1580; 1580): 25 µg/mL; MIC (Proteus rettgeri WM16; WM16): 25 µg/mL; MIC (Proteus vulgaris W091; Proteus vulgaris, W091): 25 µg/mL; MIC (Pseudomonas aeruginosa A; Pseudomonas aeruginosa): > 100 µg/mL; MIC ([1]; TYPHIMURIUM): 12.5 µg/mL; MIC (Serratia marcescens US20; Serratia marcescens, US20): 12.5 µg/mL; MIC ([5]; Staphylococcus aureus, 1517): 100 µg/mL; MIC ([2]; Staphylococcus aureus): 3.1 µg/mL; MIC ([3]; Staphylococcus aureus): 6.2 µg/mL; MIC (Streptococcus faecalis I): > 100 µg/mL; MIC ([4]; Streptococcus pyogenes, CN10): 25 µg/mL
3 | C[C@H](O)[C@H]1C(=O)N2C(C(=O)O)=C(S/C=C\C(=O)OCCN)C[C@H]12 [Example 18, (5R,6S)-3-[2-(Z)-(2-Aminoethoxycarbonyl)ethenylthio]-6-[(S)-1-hydroxyethyl]-7-oxo-1-azabicyclo[3.2.0]hept-2-ene-2-carboxylic acid] |  | 3.1 (≈ 9.05 µM) | 3.1 (≈ 9.05 µM) | 3.1 (≈ 9.05 µM) | 3.1 (≈ 9.05 µM) | 3.1 (≈ 9.05 µM) | 3.1 (≈ 9.05 µM) | 12.5 (≈ 36.5 µM) | 3.1 (≈ 9.05 µM) | 6.2 (≈ 18.1 µM) | 6.2 (≈ 18.1 µM) | 25 (≈ 73 µM) | 3.1 (≈ 9.05 µM) | 1.2 (≈ 3.5 µM) | 6.2 (≈ 18.1 µM) | ≤ 0.1 | 0.4 (≈ 1.17 µM) | 12.5 (≈ 36.5 µM) | 1 (≈ 2.92 µM) | MIC ([4]; in agar, Streptococcus pyogenes CN10, read-out: M.I.C.): ≤ 0.1 µg/mL
4 | C[C@H](OS(=O)(=O)O)[C@@H]1C(=O)N2C(C(=O)O)=C(S/C=C\C(=O)O)C[C@H]12 [Example 22, The Trisodium salt of (5R,6R)-3-[(Z)-2-carboxyethenylthio]-6-[(S)-1-hydroxysulphonyloxyethyl]-7-oxo-1-azabicyclo[3.2.0]hept-2-ene-2-carboxylic acid] | 0.5 | 1.2 | 1.2 | 25 | 0.5 | 1.2 | 1.2 | 1.2 | 0.5 | 1.2 | 1.2 | > 50 | 1.2 | 5 | 25 | 2.5 | 2.5 | 12.5 | 1.2 | 
